Among the test systems are A549 NSCLC; CCRF-CEM leukemia; HOP-92 NSCLC; HT29 colon; MDA-MB-435; OVCAR-4 ovarian; SK-OV-3 ovarian; SR leukemia; SW-620 colon; UO-31 renal.
What all share (assay): NCI tumour cell line growth inhibition, 48 h

Values joined by “and” are separate entries in the source; they are usually repeats but may differ in a detail not shown here. Equal values may be shown once.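 96-well plates; 48 h exposure; 5 concentrations. Endpoints by linear interpolation between flanking doses. Not reached: highest tested concentration assigned. The concentration for 50% growth inhibition is given as GI50. TGI denotes the concentration required for complete inhibition of growth.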

As to `N/C(=N\OC(=O)c1ccccc1)C(C(=O)NOC(=O)c1ccccc1)C1CCCCC1` (stereo not given), the GI50 in the experiment on A549 NSCLC is 2.08 µM; in the experiment on CCRF-CEM leukemia, 2.71 µM; with HOP-92 NSCLC, 2.39 µM; with HT29 colon, 16.1 µM; with MDA-MB-435, 2.21 µM; in the experiment with OVCAR-4 ovarian it was 9.4 µM. Besides, the GI50 is 15.8 µM in the experiment with SK-OV-3 ovarian, 1.99 µM with SR leukemia, 11.5 µM in the experiment on SW-620 colon and 2.01 µM in the experiment with UO-31 renal. The TGI with A549 NSCLC is 5.05 µM; in the experiment on CCRF-CEM leukemia, 9.79 µM; in the experiment with HOP-92 NSCLC it was 7.72 µM; with HT29 colon it was 35.2 µM; in the experiment with MDA-MB-435, 5.59 µM; in the experiment on OVCAR-4 ovarian, 37.6 µM. Also, the TGI with SK-OV-3 ovarian was found to be 29.7 µM; with SR leukemia, 4.99 µM; in the experiment with SW-620 colon, 27.7 µM; with UO-31 renal, 3.96 µM.

Consider `O=C(O)c1cc[c]([Hg][S]c2ncnc3nc[nH]c23)cc1`, for which the GI50 in the experiment with A549 NSCLC is 16.4 µM; with CCRF-CEM leukemia it was 4.55 µM; in the experiment with HOP-92 NSCLC it was 2.21 µM; in the experiment with HT29 colon it was 7.27 µM; in the experiment with MDA-MB-435, 3.81 µM; in the experiment with OVCAR-4 ovarian it was 10.3 µM. Moreover, the GI50 was 10.8 µM in the experiment on SK-OV-3 ovarian, 1.32 µM in the experiment on SR leukemia, 11.4 µM in the experiment with SW-620 colon and 4.79 µM in the experiment with UO-31 renal. Moreover, the TGI with A549 NSCLC was found to be 33.7 µM; in the experiment on CCRF-CEM leukemia, 21.8 µM; in the experiment with HOP-92 NSCLC, 23 µM; in the experiment with HT29 colon, 21.7 µM; in the experiment with MDA-MB-435, 16.8 µM; in the experiment on OVCAR-4 ovarian, 28.9 µM. Moreover, the TGI in the experiment with SK-OV-3 ovarian was determined as 23.2 µM; in the experiment with SR leukemia, 7.16 µM; in the experiment on SW-620 colon it was 23.5 µM; with UO-31 renal, 17 µM.

For the molecule `CN1CCCN(CCNc2nccc(-c3c(-c4cccc(O)c4)nc4sccn34)n2)S1(=O)=O`, the GI50 with A549 NSCLC was 7.46 µM and 7.71 µM; with CCRF-CEM leukemia, 8.29 µM and 4.7 µM; in the experiment with HOP-92 NSCLC, 12.1 µM and 16 µM; with HT29 colon, 2.32 µM and 2.33 µM; in the experiment on MDA-MB-435, 0.285 µM and 0.438 µM; with OVCAR-4 ovarian, 6.72 µM and 8.49 µM. Besides, the GI50 with SK-OV-3 ovarian is 3.44 µM and 3.21 µM; in the experiment on SR leukemia, 4.57 µM and 2.85 µM; in the experiment with SW-620 colon it was 18.7 µM and 19.1 µM; in the experiment on UO-31 renal it was 5.2 µM and 6.46 µM. Also, the TGI was 75 µM and > 100 µM in the experiment with A549 NSCLC; 75 µM and 46.6 µM in the experiment with CCRF-CEM leukemia; 51.6 µM and 77.5 µM in the experiment with HOP-92 NSCLC; 42.2 µM and > 100 µM in the experiment on HT29 colon; 20.6 µM and > 71.8 µM in the experiment with MDA-MB-435; 52.2 µM and > 100 µM in the experiment with OVCAR-4 ovarian. Further, the TGI in the experiment on SK-OV-3 ovarian is 21.3 µM and 17 µM; with SR leukemia, 35.2 µM and 27.8 µM; in the experiment with SW-620 colon it was 75 µM and > 100 µM; with UO-31 renal, 39 µM and > 87.2 µM.

Take `CC1(C)CCC(C)(C)c2cc(C(=O)Nc3ccc(C(=O)O)cc3)ccc21`: the TGI with A549 NSCLC was over 75.1 µM; with CCRF-CEM leukemia, over 80.8 µM; in the experiment with HOP-92 NSCLC, over 100 µM; in the experiment with HT29 colon it was over 68.2 µM; in the experiment with MDA-MB-435, over 74.3 µM; in the experiment with OVCAR-4 ovarian it was 67.1 µM. In addition, the TGI was over 61.1 µM in the experiment on SK-OV-3 ovarian, over 81.9 µM in the experiment with SR leukemia, over 100 µM in the experiment with SW-620 colon and 30.7 µM in the experiment on UO-31 renal.

With `COc1cc(-c2csc(NC(=O)c3cc(C(F)(F)F)cc(C(F)(F)F)c3)n2)cc(OC)c1OC`, the GI50 is 2.58 µM in the experiment on A549 NSCLC; 2.83 µM in the experiment on CCRF-CEM leukemia; 0.848 µM with HOP-92 NSCLC; 2.07 µM in the experiment on HT29 colon; 2.67 µM in the experiment with MDA-MB-435; 2.86 µM in the experiment with OVCAR-4 ovarian. For the same molecule, the GI50 in the experiment on SK-OV-3 ovarian is 2.91 µM; with SR leukemia it was 2.67 µM; in the experiment on SW-620 colon, 3.44 µM; in the experiment with UO-31 renal, 2.57 µM. The TGI in the experiment with A549 NSCLC was over 100 µM; in the experiment with CCRF-CEM leukemia, over 100 µM; in the experiment with HOP-92 NSCLC it was 4.11 µM; in the experiment with HT29 colon it was over 100 µM; in the experiment on MDA-MB-435, over 100 µM; with OVCAR-4 ovarian, over 100 µM. Also, the TGI in the experiment on SK-OV-3 ovarian is 9.76 µM; in the experiment with SR leukemia it was 11.6 µM; with SW-620 colon it was over 100 µM; with UO-31 renal, over 100 µM.

Take `COc1ccc(-c2cc(-c3ccc(Cl)cc3)c(C#N)c(=O)n2CCCCC(=O)Nc2ccccc2N)cc1`: the GI50 in the experiment with A549 NSCLC is 4.94 µM; with CCRF-CEM leukemia it was 4.87 µM; with HOP-92 NSCLC, 2.59 µM; with HT29 colon, 3.44 µM; with MDA-MB-435, 5.8 µM; with OVCAR-4 ovarian, 10.5 µM. Also, the GI50 in the experiment with SK-OV-3 ovarian was 11.3 µM; in the experiment with SR leukemia, 1.09 µM; with SW-620 colon, 12.6 µM; with UO-31 renal, 4.71 µM. Further, the TGI in the experiment with A549 NSCLC is over 100 µM; with CCRF-CEM leukemia, over 100 µM; in the experiment on HOP-92 NSCLC, 9.99 µM; in the experiment on HT29 colon it was over 100 µM; in the experiment on MDA-MB-435, over 100 µM; in the experiment on OVCAR-4 ovarian it was over 100 µM. In addition, the TGI is 54.3 µM in the experiment with SK-OV-3 ovarian, over 100 µM in the experiment with SR leukemia, over 100 µM in the experiment on SW-620 colon and over 100 µM with UO-31 renal.

In the case of `Nc1c(C(=O)Nc2ccc([As](=O)(O)O)cc2)cnc2nnnn12`, the TGI in the experiment on A549 NSCLC, with CCRF-CEM leukemia, with HOP-92 NSCLC, in the experiment on HT29 colon, in the experiment on MDA-MB-435 and with OVCAR-4 ovarian was over 100 µM in each case. Further, the TGI with SK-OV-3 ovarian, in the experiment with SR leukemia, with SW-620 colon and in the experiment with UO-31 renal was over 100 µM throughout.

As to `Cc1ccc(C(=O)/C(=C/c2ccc([N+](=O)[O-])cc2)S(=O)Cc2ccccc2)cc1` (stereo not given), the GI50 in the experiment on A549 NSCLC was 2.26 µM; in the experiment with CCRF-CEM leukemia, 0.396 µM; with HOP-92 NSCLC, 1.41 µM; with HT29 colon, 1 µM; with MDA-MB-435, 1.47 µM; in the experiment with OVCAR-4 ovarian, 1.35 µM. Besides, the GI50 was 3.46 µM with SK-OV-3 ovarian, 0.539 µM in the experiment with SR leukemia, 0.916 µM in the experiment with SW-620 colon and 1.17 µM in the experiment with UO-31 renal. Moreover, the TGI was 5.66 µM in the experiment with A549 NSCLC; over 100 µM with CCRF-CEM leukemia; 3.22 µM with HOP-92 NSCLC; 2.44 µM in the experiment with HT29 colon; 3.04 µM with MDA-MB-435; 2.78 µM with OVCAR-4 ovarian. Also, the TGI in the experiment with SK-OV-3 ovarian worked out at 12.5 µM; with SR leukemia, 5.21 µM; with SW-620 colon, 2.94 µM; in the experiment on UO-31 renal it was 2.55 µM.
